The source of these data is patent US8029795B2, “Targeted iron chelator delivery system” (Gwathmey, Inc., priority 1999, dated 2011).

The conditions of data set [1]: al-Refaie et al. 1992; cited from earlier work.
The conditions of data set [2]: background statement; cited from earlier work.
On the set-up of data set [3]: species or system Sprague Dawley rats. Particulars: rat, in vivo. An excerpt:
Sprague Dawley rats (n=130) were obtained from Charles River Laboratories and were iron overloaded by twelve week administration of iron in the feed. The rats were divided into the following groups: • (i) overloaded (O), • (ii) liposomes injected (OL), • (iii) overloaded animals with liposome entrapped desferrioxamine (OLD), and • (iv) overloaded with desferrioxamine (OD).
All control groups were pooled as there were not significant differences between the groups of normal non-treated controls. Range for iron was 35-150 μg/gram dry weight (human assay lab). A hepatic index of 1.0 is normal and results of 1.0-1.9 are described as nonspecific iron accumulation (human standards). […] FIGS. 4 and 5 show myocardial tissue from rat with iron overload.

Molecules are shown by their SMILES.

Regarding `Cc1c(O)c(=O)ccn1C` [deferiprone], the “severe agranulocytosis, share of patients” value in data set [1] is “about 2%”.
As to `CC(=O)N(O)CCCCCNC(=O)CCC(=O)N(O)CCCCCNC(=O)CCC(=O)N(O)CCCCCN` [desferrioxamine], in data set [2], the oral absorption result is recorded as “very low”. For the same compound, the “toxic effects in control rats” value in data set [3] is “Neither liposomes nor desferrioxamine (DFO) had toxic effects”.
